Results on 37 molecules are retold here after ChEMBL document CHEMBL1153630, “Structure-activity relationship (SAR) of parthenin analogues with pro-apoptotic activity: Development of novel anti-cancer leads” (Bioorg Med Chem Lett, 2009).

For assay [1], the system named is HL-60. Put plainly: Cytotoxicity against human HL60 cells after 48 hrs by MTT assay. The class given is functional, cell-based. Particulars: HL-60, 48 h.
For assay [2], the system named is HL-60. The experiment in a line: Induction of apoptosis in human HL60 cells assessed as DNA population at sub G0/G1 phase at 10 uM after 6 hrs by flow cytometry. The class given is functional. (In general: Flow cytometry measures light scatter and fluorescence of single cells or particles in a stream.)
Assay [3] relates to HeLa. The experiment in a line: Cytotoxicity against human HeLa cells after 48 hrs by MTT assay. The class given is functional, cell-based. (Formazan colour is commonly taken as a measure of viable cells.)
Assay [4] has as its system HL-60. The experiment in a line: Inhibition of telomerase expression in human HL60 cells at 10 uM after 6 hrs by Western blot analysis. The class given is functional. Conditions: HL-60, 6 h. For orientation: Immunoblotting shows a protein as a band on a membrane.
In assay [5] the target is DNA topoisomerase 2-alpha (Homo sapiens) (UniProt P11388). Put plainly: Inhibition of human topoisomerase 2-mediated relaxation of supercoiled plasmid DNA at 10 uM after 1 hr by electrophoresis analysis.
Sequence of DNA topoisomerase 2-alpha (Homo sapiens) (P11388 whole entry): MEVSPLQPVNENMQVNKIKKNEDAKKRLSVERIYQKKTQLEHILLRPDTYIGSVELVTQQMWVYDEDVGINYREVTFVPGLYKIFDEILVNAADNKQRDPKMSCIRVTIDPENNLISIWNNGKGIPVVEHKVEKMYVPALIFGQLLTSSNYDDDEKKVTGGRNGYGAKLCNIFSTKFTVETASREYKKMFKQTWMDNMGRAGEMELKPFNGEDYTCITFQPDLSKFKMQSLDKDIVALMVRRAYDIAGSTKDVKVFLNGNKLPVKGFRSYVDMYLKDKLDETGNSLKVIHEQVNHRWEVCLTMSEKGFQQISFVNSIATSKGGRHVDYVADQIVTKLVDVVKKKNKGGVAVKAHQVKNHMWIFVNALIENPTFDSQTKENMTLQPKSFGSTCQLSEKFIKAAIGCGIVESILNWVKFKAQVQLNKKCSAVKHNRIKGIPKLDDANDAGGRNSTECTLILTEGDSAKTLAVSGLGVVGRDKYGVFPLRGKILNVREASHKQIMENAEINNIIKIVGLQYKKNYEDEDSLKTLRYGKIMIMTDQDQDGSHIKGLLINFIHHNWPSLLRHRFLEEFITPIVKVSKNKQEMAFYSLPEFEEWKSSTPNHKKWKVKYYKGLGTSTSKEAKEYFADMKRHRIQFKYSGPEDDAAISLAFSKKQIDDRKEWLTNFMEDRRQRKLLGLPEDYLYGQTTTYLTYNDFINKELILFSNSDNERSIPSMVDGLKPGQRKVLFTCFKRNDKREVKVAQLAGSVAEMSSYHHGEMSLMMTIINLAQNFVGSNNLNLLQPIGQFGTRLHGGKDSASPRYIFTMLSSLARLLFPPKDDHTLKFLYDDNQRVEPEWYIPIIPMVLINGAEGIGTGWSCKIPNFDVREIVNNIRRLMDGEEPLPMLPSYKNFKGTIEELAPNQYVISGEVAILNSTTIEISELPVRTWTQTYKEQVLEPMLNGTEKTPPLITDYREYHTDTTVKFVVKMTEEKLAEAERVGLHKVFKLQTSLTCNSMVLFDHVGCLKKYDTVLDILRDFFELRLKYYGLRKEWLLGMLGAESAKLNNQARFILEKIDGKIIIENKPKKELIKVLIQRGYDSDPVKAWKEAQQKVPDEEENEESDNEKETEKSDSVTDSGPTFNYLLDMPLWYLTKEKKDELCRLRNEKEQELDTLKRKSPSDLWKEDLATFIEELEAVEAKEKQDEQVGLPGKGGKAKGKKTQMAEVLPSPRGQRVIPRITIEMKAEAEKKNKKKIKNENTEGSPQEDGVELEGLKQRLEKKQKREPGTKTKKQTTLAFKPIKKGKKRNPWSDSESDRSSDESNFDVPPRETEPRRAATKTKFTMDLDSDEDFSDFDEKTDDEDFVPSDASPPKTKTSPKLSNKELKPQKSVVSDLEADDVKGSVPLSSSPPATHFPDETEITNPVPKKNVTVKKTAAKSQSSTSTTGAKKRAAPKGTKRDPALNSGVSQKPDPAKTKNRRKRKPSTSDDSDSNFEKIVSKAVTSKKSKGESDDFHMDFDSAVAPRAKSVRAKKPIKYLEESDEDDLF
Assay [6] has the same target. The experiment in a line: Inhibition of human topoisomerase 2-mediated relaxation of supercoiled plasmid DNA at 100 uM after 1 hr by electrophoresis analysis.

Molecules are shown by their SMILES. The source made the active and inactive calls. No cut-off for these calls is given here.

Consider `C[C@H]1CC[C@@H]2[C@@H](OC(=O)C2(O)CBr)[C@]2(C)C(=O)C=C[C@@]12O` (some centres undefined), for which the IC50 in assay [1] worked out at 12 µM; in assay [3], 64 µM. The Activity in assay [2] is listed as 3.25%.

As for `C=C1C(=O)O[C@@H]2[C@H]1CC[C@H](C)[C@]1(O)C=C(/C=C/CCC)C(=O)[C@@]21C`, the IC50 was 42 µM in assay [1] and 68 µM in assay [3]. Besides, the Activity in assay [2] was 2.33%.

Turning to `C=C1C(=O)O[C@@H]2[C@H]1CC[C@H](C)[C@]13OCO[C@H]1CC(=O)[C@@]23C`, the IC50 stood at 49 µM in assay [1] and 65 µM in assay [3]. For the same molecule, the Activity in assay [2] stood at 2.86%.

`C=C1C(=O)O[C@@H]2[C@H]1CC[C@H](C)[C@]1(O)[C@H](OC)CC(=O)[C@@]21C`: the IC50 is 32 µM in assay [1] and 68 µM in assay [3]. Also, in assay [2], the Activity is 1.95%.

`C=C1C(=O)O[C@@H]2[C@H]1CC[C@H](C)[C@]1(O)[C@H](OCC)CC(=O)[C@@]21C`: the IC50 amounted to 60 µM in assay [1] and 76 µM in assay [3]. The Activity in assay [2] amounted to 4.51%.

Turning to `C=C1C(=O)O[C@@H]2[C@H]1CC[C@H](C)[C@]13OC(Cc4ccco4)O[C@H]1/C(=C/Cc1ccco1)C(=O)[C@@]23C` (some centres undefined), the results for the IC50 in assay [1] and in assay [3] were 5 µM and 68 µM, respectively. For the same molecule, in assay [2], the Activity was found to be 42.38%.

Consider `C=C1C(=O)O[C@@H]2[C@H]1CC[C@H](C)[C@]1(O)[C@H](O)CC(=O)[C@@]21C`, for which the 50% inhibitory concentration (IC50) in assay [1] worked out at 50 µM; in assay [3] it was 68 µM. Besides, the Activity in assay [2] came to 1.17%.

With `CC1C(=O)O[C@@H]2[C@H]1CC[C@H](C)[C@]1(O)C=CC(O)[C@@]21C` (some centres undefined), the results for the IC50 in assay [1] and in assay [3] were 48 µM and 64 µM, respectively. In addition, in assay [2], the Activity was 1.43%.

Consider `C=C1C(=O)O[C@@H]2[C@H]1CCC(C)=C1C=CC(=O)[C@]12C`, for which the values for the IC50 in assay [1] and in assay [3] were 16 µM and 74 µM, respectively. For the same molecule, the Activity in assay [2] came out at 2.95%.

As for `C=C1C(=O)O[C@@H]2[C@H]1CC[C@H](C)[C@]1(O)C=C(C(O)/C=C/c3ccccc3)C(=O)[C@@]21C` (some centres undefined), the results for the IC50 in assay [1] and in assay [3] were 46 µM and 78 µM, respectively. Also, in assay [2], the Activity stood at 2.44%.

Consider `C[C@H]1CC[C@H]2[C@H](COCCO)C(=O)O[C@H]2[C@]2(C)C(=O)C=C[C@@]12O`, for which the IC50 in assay [1] was determined as 44 µM; in assay [3], 76 µM. In addition, in assay [2], the Activity was 2.05%.

`C=C1C(=O)O[C@@H]2[C@H]1CC[C@H](C)[C@]13OC(/C=C/c4ccccc4)O[C@H]1/C(=C/C=C/c1ccccc1)C(=O)[C@@]23C` (some centres undefined): the IC50 in assay [1] amounted to 7 µM; in assay [3], 25 µM. For the same molecule, in assay [2], the Activity is 82.97%.

Take `C[C@H]1CC[C@@H]2[C@@H](OC(=O)C2(Br)CBr)[C@]2(C)C(=O)C=C[C@@]12O` (some centres undefined): the IC50 was determined as 12 µM in assay [1] and 67 µM in assay [3]. In assay [2], the Activity is listed as 1.93%.

With `C=C1C(=O)O[C@@H]2[C@H]1CC[C@H](C)[C@]13OC(c4ccc5c(c4)OCO5)O[C@H]1/C(=C/c1ccc4c(c1)OCO4)C(=O)[C@@]23C` (some centres undefined), the IC50 in assay [1] was 5 µM; in assay [3] it was 57 µM. Moreover, the Activity in assay [2] was 58.75%.

With `C=C1C(=O)O[C@@H]2[C@H]1CC[C@H](C)[C@]1(O)[C@@H](O)/C(=C/c3ccc(Cl)cc3)C(=O)[C@@]21C`, the IC50 in assay [1] was 9 µM; in assay [3] it was 44 µM. Moreover, the Activity in assay [2] turned out to be 19.38%.

As for `C[C@H]1CC[C@@H]2[C@@H](OC(=O)C2(Br)CBr)[C@]2(C)C(=O)C(Br)=C[C@@]12O` (some centres undefined), the half-inhibitory concentration (IC50) in assay [1] worked out at 13 µM; in assay [3], 76 µM. Further, the Activity in assay [2] came out at 2.17%.

On to `CC(=O)OC1C=C[C@@]2(O)[C@@H](C)CC[C@H]3C(C)C(=O)O[C@H]3[C@]12C` (some centres undefined), for which the IC50 in assay [1] was 48 µM; in assay [3], 74 µM. For the same molecule, the Activity in assay [2] worked out at 0.82%.

For the molecule `C=C1C(=O)O[C@@H]2[C@H]1CC[C@H](C)[C@]1(O)[C@H](OCCCC)CC(=O)[C@@]21C`, the IC50 in assay [1] was found to be 42 µM; in assay [3], 70 µM. Also, the Activity in assay [2] amounted to 1.9%.

For the molecule `C=C1C(=O)O[C@@H]2[C@H]1CC[C@H](C)[C@]1(O)C=C(C(O)c3ccc(Cl)cc3)C(=O)[C@@]21C` (some centres undefined), the IC50 was determined as 17 µM in assay [1] and 70 µM in assay [3]. In addition, in assay [2], the Activity is listed as 2.76%.

With `C=C1C(=O)O[C@@H]2[C@H]1CC[C@H](C)[C@]13OCO[C@H]1C(CO)(CO)C(=O)[C@@]23C`, the IC50 in assay [1] was determined as 17 µM; in assay [3], 70 µM. In addition, the Activity in assay [2] worked out at 2.61%.

Regarding `C=C1C(=O)O[C@@H]2[C@H]1CC[C@H](C)[C@]13OC(CC)O[C@H]1CC(=O)[C@@]23C` (some centres undefined), the IC50 in assay [1] turned out to be 38 µM; in assay [3] it was 65 µM. Also, in assay [2], the Activity came out at 2.71%.

`C[C@H]1CC[C@@H]2[C@@H](OC(=O)C2(Br)CBr)[C@]2(C)C(=O)C(Br)C(Br)[C@@]12O` (some centres undefined): the IC50 was 8 µM in assay [1] and 61 µM in assay [3]. Also, the Activity in assay [2] is reported as 18.33%.

As to `C=C1C(=O)O[C@@H]2[C@H]1CC[C@H](C)[C@]13OC(c4ccc(Cl)cc4)O[C@H]1/C(=C/c1ccc(Cl)cc1)C(=O)[C@@]23C` (some centres undefined), testing at 10 µM in assay [4] gave an inhibition of 80%. For the same molecule, the IC50 turned out to be 3 µM in assay [1] and 12 µM in assay [3]. Further, the Activity in assay [2] came out at 94.1%. The inhibition entry in assay [5] and in assay [6] was “Active” in each case.

`C=C1C(=O)O[C@@H]2[C@H]1CC[C@H](C)[C@]1(O)C=C(/C=C/CCCCC)C(=O)[C@@]21C`: the values for the IC50 in assay [1] and in assay [3] were 24 µM and 47 µM, respectively. The Activity in assay [2] is 6.78%.

As for `C=C1C(=O)O[C@@H]2[C@H]1CC[C@H](C)[C@]1(O)C=CC(=O)[C@@]21C` [PARTHENIN], the values for the IC50 in assay [1] and in assay [3] were 17 µM and 60 µM, respectively. Besides, the Activity in assay [2] was 13.69%.

`C=C1C(=O)O[C@@H]2[C@H]1CC[C@H](C)[C@]13OC(C)O[C@H]1CC(=O)[C@@]23C` (some centres undefined): the IC50 turned out to be 41 µM in assay [1] and 70 µM in assay [3]. Besides, the Activity in assay [2] came out at 1.9%.

Take `C=C1C(=O)O[C@@H]2[C@H]1CC[C@H](C)[C@]13OC(c4ccccc4)O[C@H]1/C(=C/c1ccccc1)C(=O)[C@@]23C` (some centres undefined): the IC50 in assay [1] stood at 6 µM; in assay [3] it was 31 µM. For the same molecule, the Activity in assay [2] came to 69.28%.

Turning to `C=C1C(=O)O[C@@H]2[C@H]1CC[C@H](C)[C@]1(O)[C@H](OCCC)CC(=O)[C@@]21C`, the IC50 in assay [1] was 18 µM; in assay [3] it was 74 µM. Besides, the Activity in assay [2] is 3.21%.

Take `C=C1C(=O)O[C@@H]2[C@H]1CC[C@H](C)[C@]1(O)[C@H](OCCO)CC(=O)[C@@]21C`: the values for the IC50 in assay [1] and in assay [3] were 44 µM and 72 µM, respectively. In addition, the Activity in assay [2] is recorded as 1.81%.

With `C=C1C(=O)O[C@@H]2[C@H]1CC[C@H](C)[C@]1(O)C=C(C(O)c3ccccc3)C(=O)[C@@]21C` (some centres undefined), the IC50 in assay [1] was found to be 9 µM; in assay [3], 58 µM. Moreover, the Activity in assay [2] came out at 13.89%.

Consider `C=C1C(=O)O[C@@H]2[C@H]1CC[C@H](C)[C@]1(O)C=C(C(O)c3ccc4c(c3)OCO4)C(=O)[C@@]21C` (some centres undefined), for which the IC50 in assay [1] came to 18 µM; in assay [3], 73 µM. Also, the Activity in assay [2] came out at 2.13%.

For `C=C1C(=O)O[C@@H]2[C@H]1CC[C@H](C)[C@]1(O)C=C(CO)C(=O)[C@@]21C`, the IC50 was found to be 16 µM in assay [1] and 65 µM in assay [3]. The Activity in assay [2] was determined as 3.01%.

For the molecule `C[C@H]1CC[C@H]2[C@H](COCCO)C(=O)O[C@H]2[C@]2(C)C(=O)C[C@@H](OCCO)[C@@]12O`, the values for the IC50 in assay [1] and in assay [3] were 55 µM and 72 µM, respectively. In addition, the Activity in assay [2] is on record as 2.19%.

For `C=C1C(=O)O[C@@H]2[C@H]1CC[C@H](C)[C@]1(O)C=C(/C=C/CC)C(=O)[C@@]21C`, the IC50 in assay [1] was found to be 45 µM; in assay [3] it was 73 µM. Further, the Activity in assay [2] came to 1.6%.

For `C=C1C(=O)O[C@@H]2[C@H]1CC[C@H](C)[C@]13OC(c4ccc(OC)c(OC)c4)O[C@H]1/C(=C/c1ccc(OC)c(OC)c1)C(=O)[C@@]23C` (some centres undefined), the IC50 in assay [1] was 6 µM; in assay [3], 32 µM. In addition, the Activity in assay [2] came out at 81.38%.

`C=C1C(=O)O[C@@H]2[C@H]1CC[C@H](C)[C@]1(O)C=CC(=O)O[C@@]21C`: the results for the IC50 in assay [1] and in assay [3] were 18 µM and 67 µM, respectively. Besides, the Activity in assay [2] turned out to be 2.98%.

For the molecule `C=C1C(=O)O[C@@H]2[C@H]1CC[C@H](C)[C@]13OC(c4ccc(OC)cc4)O[C@H]1/C(=C/c1ccc(OC)cc1)C(=O)[C@@]23C` (some centres undefined), the half-maximal inhibitory concentration (IC50) in assay [1] amounted to 46 µM; in assay [3], 72 µM. Besides, the Activity in assay [2] was found to be 2.17%.

One may read the IC50 as the concentration needed to halve the response being measured. Low readings indicate inhibition by little substance, high ones a need for much substance. What is called inhibition is the relative decrease from the control value, in per cent.
